Test systems include SR; RPMI-8226; HOP-92; HL-60; KM12; DU-145; SNB-19; HCT-15; HT-29; NCI-H226; UACC-257; SK-MEL-5; SK-MEL-2; MDA-MB-231; SF-539; BT-549; NCI-H23; Hs-578T; SK-MEL-28.
Holding throughout (test): inhibition of tumour cell growth, NCI panel, 48 h

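Tested at 5 concentrations; 48 h exposure; 96-well plates; endpoints linearly interpolated, else capped at highest concentration. Abbreviation: GI50, concentration required for 50% inhibition of growth.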 Active and inactive are the calls of the source. Cut-off read from the data, not from the text of the source: active = GI50 up to about 1.1 µM and inactive = higher.

These results are taken from ChEMBL document CHEMBL1201862, “PubChem BioAssay data set” (2004).

For `CC(=O)Nc1ccccc1SCCSSCCSc1ccccc1NC(C)=O`, the GI50 in the experiment on SR was 34.4 µM (inactive); in the experiment with RPMI-8226 it was 17.9 µM (inactive); in the experiment on HOP-92 it was 17.5 µM (inactive); with HL-60 it was 17.4 µM (inactive); in the experiment with KM12, 40.1 µM (inactive); in the experiment on DU-145, 25.6 µM (inactive). In addition, the GI50 with SNB-19 was 17.7 µM (inactive); with HCT-15, 20.7 µM; in the experiment with HT-29, 28.8 µM (inactive); in the experiment on NCI-H226, 31.1 µM (inactive); with UACC-257, 20.7 µM (inactive); in the experiment with SK-MEL-5, 38.5 µM (inactive). Besides, the GI50 in the experiment on SK-MEL-2 was 27.9 µM (inactive); with MDA-MB-231, 32.3 µM (inactive); in the experiment with SF-539, 24 µM (inactive); in the experiment with BT-549, 51.9 µM (inactive); in the experiment with NCI-H23 it was 30.1 µM (inactive).
For the compound `CC(=O)N1CCc2c([nH]c3ccc(Br)cc23)C1c1ccccc1` (configuration not stated), the GI50 in the experiment on SR was 0.733 µM (active); with RPMI-8226, 2.29 µM (inactive); in the experiment with HOP-92 it was > 10 µM (inactive); in the experiment on HL-60, 2.55 µM (inactive); in the experiment on KM12 it was > 3.41 µM (inactive); in the experiment with DU-145, > 10 µM (inactive). The GI50 in the experiment with SNB-19 is > 10 µM (inactive); with Hs-578T, > 10 µM (inactive); with HCT-15, 0.194 µM; in the experiment on HT-29 it was 5.37 µM (inactive); in the experiment on NCI-H226 it was > 10 µM (inactive); in the experiment with UACC-257, > 10 µM (inactive). Moreover, the GI50 in the experiment on SK-MEL-5 was 2.4 µM (inactive); with SK-MEL-28 it was > 10 µM (inactive); in the experiment on SK-MEL-2, > 10 µM (inactive); in the experiment with SF-539 it was > 6.81 µM (inactive); with BT-549, 7.03 µM (inactive).
Consider `C/C=C\C(CC(=O)NCCC1CN(C(=O)OCc2ccccc2)c2ccccc21)CC(=O)OC` (configuration not stated), for which the GI50 with RPMI-8226 is 79.4 µM (inactive); in the experiment on HOP-92, 72.1 µM (inactive); in the experiment with KM12, > 100 µM (inactive); with DU-145, > 100 µM (inactive); with SNB-19, > 100 µM (inactive); in the experiment with Hs-578T it was > 100 µM (inactive). Further, the GI50 is greater than 100 µM in the experiment with HCT-15; > 100 µM (inactive) in the experiment with HT-29; > 100 µM (inactive) in the experiment with UACC-257; > 100 µM (inactive) in the experiment with SK-MEL-5; > 100 µM (inactive) in the experiment on SK-MEL-28; > 100 µM (inactive) in the experiment on SK-MEL-2. Further, the GI50 in the experiment on MDA-MB-231, in the experiment with BT-549 and in the experiment on NCI-H23 was > 100 µM (inactive) each time.
Consider `COc1ccc(/C=C2\CCC(CNc3ccc(Br)cc3)C2=O)cc1` (configuration not stated), for which the GI50 in the experiment with SR is 24.2 µM (inactive); in the experiment with RPMI-8226, 5.87 µM (inactive); with HOP-92 it was > 100 µM (inactive); in the experiment with HL-60 it was 24.5 µM (inactive); with KM12 it was 29.1 µM (inactive); with DU-145, > 100 µM (inactive). The GI50 was > 100 µM (inactive) in the experiment with SNB-19; 8.45 µM with HCT-15; > 100 µM (inactive) in the experiment with HT-29; > 100 µM (inactive) in the experiment with NCI-H226; > 100 µM (inactive) in the experiment on UACC-257; 80.9 µM (inactive) in the experiment on SK-MEL-5. The GI50 was > 100 µM (inactive) in the experiment with SK-MEL-28, 53.3 µM (inactive) with MDA-MB-231, 88.7 µM (inactive) with BT-549 and > 100 µM (inactive) in the experiment on NCI-H23.
In the case of `CC1=Nc2ccccc2OC(C)=C1/N=N/c1ccc2[nH]c(C)nc2c1`, the GI50 with SR was > 100 µM (inactive); with RPMI-8226 it was > 100 µM (inactive); with HOP-92, 44.1 µM (inactive); in the experiment on HL-60, > 100 µM (inactive); in the experiment with KM12 it was > 100 µM (inactive); in the experiment on DU-145, > 100 µM (inactive). Besides, the GI50 is > 100 µM (inactive) in the experiment on SNB-19; greater than 100 µM with HCT-15; > 100 µM (inactive) in the experiment on HT-29; > 100 µM (inactive) with NCI-H226; > 100 µM (inactive) in the experiment with UACC-257; > 100 µM (inactive) in the experiment with SK-MEL-28. In addition, the GI50 with SK-MEL-2, with MDA-MB-231, in the experiment on SF-539, in the experiment with BT-549 and in the experiment on NCI-H23 was > 100 µM (inactive) throughout.
Take `O=C(Cn1c2c(c3ccccc31)CCCC2)NC1CCCCC1`: the GI50 with RPMI-8226 was > 100 µM (inactive); in the experiment with HL-60 it was 0.405 µM (active); with SNB-19, > 100 µM (inactive); with Hs-578T, 55 µM (inactive); in the experiment with HCT-15 it was greater than 100 µM; in the experiment on HT-29 it was > 100 µM (inactive). In addition, the GI50 is > 100 µM (inactive) in the experiment on UACC-257; > 100 µM (inactive) in the experiment with SK-MEL-5; 63 µM (inactive) in the experiment with SK-MEL-28; > 100 µM (inactive) with SK-MEL-2; > 100 µM (inactive) with SF-539; > 100 µM (inactive) in the experiment on BT-549. For the same compound, the GI50 in the experiment on NCI-H23 is > 100 µM (inactive).
Consider `COCC(/N=C\N1CCCc2ccccc2[C@@H]1CCCCl)C(C)(C)C` (some centres not stated), for which the GI50 was 2.05 µM (inactive) in the experiment with SR; 2.67 µM (inactive) in the experiment on RPMI-8226; 7.19 µM (inactive) with HOP-92; 0.619 µM (active) in the experiment on HL-60; 4.24 µM (inactive) in the experiment with KM12; > 100 µM (inactive) in the experiment on DU-145. The GI50 in the experiment with SNB-19 was 18.7 µM (inactive); in the experiment on Hs-578T, 0.0184 µM (active); in the experiment on HCT-15, 41.9 µM; in the experiment with HT-29, 1.54 µM (inactive); with NCI-H226 it was 5.28 µM (inactive); in the experiment on UACC-257 it was 0.798 µM (active). Moreover, the GI50 is 1.31 µM (inactive) with SK-MEL-5; > 100 µM (inactive) in the experiment with SK-MEL-28; 17.1 µM (inactive) in the experiment with SK-MEL-2; 3.49 µM (inactive) with MDA-MB-231; 12.1 µM (inactive) with SF-539; 0.421 µM (active) in the experiment with NCI-H23.
As to `Nc1ncnc2c1ncn2C1OC(CO)C2OC21` (configuration not stated), the GI50 in the experiment with SR, in the experiment with RPMI-8226, in the experiment with HOP-92, with HL-60, with KM12 and with DU-145 was > 100 µM (inactive) each time. Moreover, the GI50 with SNB-19 was > 100 µM (inactive); with Hs-578T, > 100 µM (inactive); in the experiment with HCT-15, greater than 10 µM; in the experiment on HT-29 it was > 100 µM (inactive); in the experiment with NCI-H226 it was > 100 µM (inactive); in the experiment with UACC-257, > 100 µM (inactive). The GI50 in the experiment on SK-MEL-5, with SK-MEL-28, in the experiment on SK-MEL-2, in the experiment on MDA-MB-231, with SF-539 and with NCI-H23 was > 100 µM (inactive) each time.
As for `COc1cc(Nc2c(C#N)[n+]([O-])c3ccccc3[n+]2[O-])cc(OC)c1OC`, the GI50 in the experiment with RPMI-8226 is > 100 µM (inactive); with HOP-92, 28.1 µM (inactive); in the experiment with HL-60, 41.2 µM (inactive); in the experiment with KM12, 37.7 µM (inactive); in the experiment with DU-145, 43.3 µM (inactive); with SNB-19, 28.6 µM (inactive). In addition, the GI50 with Hs-578T is > 100 µM (inactive); in the experiment with HCT-15, 15.6 µM; in the experiment on HT-29, 29.9 µM (inactive); in the experiment with UACC-257 it was 27.4 µM (inactive); with SK-MEL-5, 19.6 µM (inactive); in the experiment on SK-MEL-28 it was 19 µM (inactive). Also, the GI50 in the experiment with SK-MEL-2 is 39.1 µM (inactive); with SF-539, 33.6 µM (inactive); in the experiment with BT-549, 97.5 µM (inactive); in the experiment with NCI-H23 it was 19.6 µM (inactive).
